Measurements taken from patent publication US20050004018A1, “Use of antitumoral compound in cancer therapy” (priority 2001, published 2005).
Read-outs that look alike come from different tables or passages of the source.

What was measured:
cancer patients [1] = conditions: cited from earlier work
human progenitor cells = conditions: cited from earlier work
cancer patients [2] = assay: phase II programme, 24 hour every 3 weeks schedule; format: in vivo, human
Experimental: (§1) Two schedules (24 hour every 3 weeks and 3 hour every 3 weeks) reached the phase II programme. The phase II programme confirmed the activity against soft tissue sarcoma and ovarian cancer. However, the recommended starting dose for the 3 hour schedule had to be reduced because of serious toxicity. The recommended dose for the 24 hour schedule was 1500 μg /m^2 and the recommended dose for the 3 hour schedule is at present 1300 μg/m^2.
The 3 hour every three weeks schedule has the signifcant advantage of being more confortable for the patient because it reduces the time being spent at the hospital for infusion and monitoring, in particular avoiding overnight stay.

cancer patients [3] = conditions: cited from earlier work; remark: listed apart in the source
canine progenitor cells = conditions: cited from earlier work
dogs = conditions: cited from earlier work
cancer patients [4] = conditions: cited from earlier work; remark: listed apart in the source
rats = conditions: single or fractionated dose, intravenous; cited from earlier work
murine progenitor cells = conditions: cited from earlier work
cancer patients [5] = conditions: 1-hr intravenous infusion every 3 weeks; cited from earlier work
human tumor xenografts = conditions: broad range of in vivo tumor models, including human tumor xenografts in nude mice; cited from earlier work
cancer patients [6] = assay: phase II programme, 3 hour every 3 weeks schedule; format: in vivo, human
Experimental: as §1
Serious increases of transaminases (grade 3-4) were more frequent with the 3 hour schedule than with the 24 hour schedule. […] This toxicity has improved with the amendment that reduces the starting dose to 1300 (grade 3 and 4 ALT in 38% and 8.5% of patients), although it would be desirable to reduce it further. Cholestasis is less severe and less frequent observing grade 1, 2 and 3 alkaline phosphatase in 50.4%, 6.5% and 1.7% (leading to an overall 58.6% that compares similarly with 57.7% over 24 hours) of patients. […] An infrequent but important toxicity was the renal toxicity, represented by creatinine abnormalities, that is also higher than in the 24 hour schedule. […]

[7] = 24 hour infusion, worst grade per patient
[8] = 24 h schedule every three weeks
[9] = Per patient (24 h), number (percent)
[10] = 1 hr infusion days 1-5 every 3 weeks
[11] = 3 hour infusion, worst grade per patient
[12] = Per patient (3 h), number (percent)
[13] = starting dose reduced to 1300, % of patients

ecteinascidin 743 [ET-743]
MTD (cancer patients [1]; 3-hr infusion every 3 weeks): 1800 μg/M^2 | RD for Phase II studies (cancer patients [1]; 3-hr infusion every 3 weeks): 1650 μg/M^2 | increases of bilirubin G2 or greater (cancer patients [1]; % of treatment courses at the RD): 9% | sensitivity of progenitor cells (human progenitor cells): equal sensitivity of erythropoid and myeloid cells | Alk Phosph, NCI-CTC Grade 1 (cancer patients [2]; [7]): 149 (46.7) Number of patients (%) | Alk Phosph, NCI-CTC Grade 2 (cancer patients [2]; [7]): 29 (9.1) Number of patients (%) | Alk Phosph, NCI-CTC Grade 3 (cancer patients [2]; [7]): 6 (1.9) Number of patients (%) | Bilirubin, NCI-CTC Grade 1 (cancer patients [2]; [7]): 49 (15.3) Number of patients (%) | Bilirubin, NCI-CTC Grade 2 (cancer patients [2]; [7]): 23 (6.9) Number of patients (%) | Bilirubin, NCI-CTC Grade 3 (cancer patients [2]; [7]): 4 (1.3) Number of patients (%) | Gamma GT, NCI-CTC Grade 1 (cancer patients [2]; [7]): 25 (22.9) Number of patients (%) | Gamma GT, NCI-CTC Grade 2 (cancer patients [2]; [7]): 29 (26.6) Number of patients (%) | Gamma GT, NCI-CTC Grade 3 (cancer patients [2]; [7]): 32 (29.4) Number of patients (%) | Gamma GT, NCI-CTC Grade 4 (cancer patients [2]; [7]): 2 (1.8) Number of patients (%) | Hemoglobin, NCI-CTC Grade 0-1 (cancer patients [2]; [7]): 165 (51.6) Number of patients (%) | Hemoglobin, NCI-CTC Grade 2 (cancer patients [2]; [7]): 111 (34.7) Number of patients (%) | Hemoglobin, NCI-CTC Grade 3 (cancer patients [2]; [7]): 33 (10.3) Number of patients (%) | Hemoglobin, NCI-CTC Grade 4 (cancer patients [2]; [7]): 11 (3.4) Number of patients (%) | Neutrophils, NCI-CTC Grade 0-1 (cancer patients [2]; [7]): 103 (32.3) Number of patients (%) | Neutrophils, NCI-CTC Grade 2 (cancer patients [2]; [7]): 54 (16.9) Number of patients (%) | Neutrophils, NCI-CTC Grade 3 (cancer patients [2]; [7]): 92 (28.8) Number of patients (%) | Neutrophils, NCI-CTC Grade 4 (cancer patients [2]; [7]): 70 (21.9) Number of patients (%) | Platelets, NCI-CTC Grade 0-1 (cancer patients [2]; [7]): 260 (81.5) Number of patients (%) | Platelets, NCI-CTC Grade 2 (cancer patients [2]; [7]): 17 (5.3) Number of patients (%) | Platelets, NCI-CTC Grade 3 (cancer patients [2]; [7]): 35 (11.0) Number of patients (%) | Platelets, NCI-CTC Grade 4 (cancer patients [2]; [7]): 7 (2.2) Number of patients (%) | SGOT/AST, NCI-CTC Grade 1 (cancer patients [2]; [7]): 74 (23.2) Number of patients (%) | SGOT/AST, NCI-CTC Grade 2 (cancer patients [2]; [7]): 88 (27.6) Number of patients (%) | SGOT/AST, NCI-CTC Grade 3 (cancer patients [2]; [7]): 120 (37.6) Number of patients (%) | SGOT/AST, NCI-CTC Grade 4 (cancer patients [2]; [7]): 16 (5.0) Number of patients (%) | SGPT/ALT, NCI-CTC Grade 1 (cancer patients [2]; [7]): 62 (19.4) Number of patients (%) | SGPT/ALT, NCI-CTC Grade 2 (cancer patients [2]; [7]): 83 (25.9) Number of patients (%) | SGPT/ALT, NCI-CTC Grade 3 (cancer patients [2]; [7]): 127 (39.7) Number of patients (%) | SGPT/ALT, NCI-CTC Grade 4 (cancer patients [2]; [7]): 30 (9.4) Number of patients (%) | recommended dose (cancer patients [2]; 24 hour schedule, phase II): 1500 μg /m^2 | Grade 3-4 ALT (cancer patients [2]; [8]): 49.1% | Grade 3-4 Bilirubin (cancer patients [2]; [8]): 1.3% | Grade 3-4 Creatinine (cancer patients [2]; [8]): 0.7% | Grade 3-4 Creatinine Kinase (cancer patients [2]; [8]): 2.2% | Grade 3-4 Hemoglobin (cancer patients [2]; [8]): 13.7% | Grade 3-4 Neutrophils (cancer patients [2]; [8]): 50.7% | Grade 3-4 Platelets (cancer patients [2]; [8]): 13.2% | Creatinine abnormalities, NCI-CTC Grade 1 (cancer patients [2]; [9]): 76 (23.9) | Creatinine abnormalities, NCI-CTC Grade 2 (cancer patients [2]; [9]): 19 (6.0) | Creatinine abnormalities, NCI-CTC Grade 3 (cancer patients [2]; [9]): 3 (0.9) | Creatinine abnormalities, NCI-CTC Grade 4 (cancer patients [2]; [9]): 2 (0.6) | Grades 1-3 of bilirubin (cancer patients [2]; over 24 hours, % of patients): 23.8% | alkaline phosphatase overall (cancer patients [2]; over 24 hours, % of patients): 57.7% | MTD (cancer patients [3]; [10]): 380 μg/m^2/day | RD (cancer patients [3]; [10]): 325 μg/m^2/day | cycles delayed (cancer patients [3]; at 325 μg/m^2/day (RD)): 59% | median day of recovery to grade 1 for neutropenia (cancer patients [3]; at 325 μg/m^2/day (RD)): 28 days | patients who developed DLT (cancer patients [3]; at 380 μg/m^2/day (MTD)): 3 patients | Reversible grade 3 transaminases, cycles (cancer patients [3]; at the recommended dose, % of cycles): 14% | Reversible grade 3 transaminases, patients (cancer patients [3]; at the recommended dose, % of patients): 31% | sensitivity of progenitor cells (canine progenitor cells): equal sensitivity of erythropoid and myeloid cells | further toxicity in dogs (dogs; following administration): vomiting and diarrhoea | toxicity (dogs; single or fractionated dose, intravenous, dogs): reversible hematological and hepatic toxicity | MTD (cancer patients [4]; 72 hr infusion every 3 weeks): 1200 μg/M^2 | RD (cancer patients [4]; 72 hr infusion every 3 weeks): 1050 μg/M^2 | reversible grade 4 transaminases elevation (cancer patients [4]; at 1200 μg/M^2 (MTD)): 2 out of 9 | grade 3 hypertransaminasemia (cancer patients [4]; at the RD (1050 μg/M^2), % of patients): 50% | grade 4 hypertransaminasemia (cancer patients [4]; at the RD (1050 μg/M^2)): there was not any grade 4 hypertransaminasemia | toxicity (rats): reversible hematological and hepatic toxicity | sensitivity of progenitor cells (murine progenitor cells): equal sensitivity of erythropoid and myeloid cells | maximum tolerated dose (MTD) (cancer patients [5]): 1100 μg/m^2 | antitumor activity in vivo (human tumor xenografts): Potent antitumor activity | Alk Phosph, NCI-CTC Grade 1 (cancer patients [6]; [11]): 115 (50.4) Number of patients (%) | Alk Phosph, NCI-CTC Grade 2 (cancer patients [6]; [11]): 15 (6.5) Number of patients (%) | Alk Phosph, NCI-CTC Grade 3 (cancer patients [6]; [11]): 4 (1.7) Number of patients (%) | Alk Phosph, NCI-CTC Grade 4 (cancer patients [6]; [11]): 2 (0.8) Number of patients (%) | Bilirubin, NCI-CTC Grade 1 (cancer patients [6]; [11]): 59 (25.8) Number of patients (%) | Bilirubin, NCI-CTC Grade 2 (cancer patients [6]; [11]): 38 (16.6) Number of patients (%) | Bilirubin, NCI-CTC Grade 3 (cancer patients [6]; [11]): 6 (2.6) Number of patients (%) | Bilirubin, NCI-CTC Grade 4 (cancer patients [6]; [11]): 0 ^ Number of patients (%) | Hemoglobin, NCI-CTC Grade 0-1 (cancer patients [6]; [11]): 132 (55) Number of patients (%) | Hemoglobin, NCI-CTC Grade 2 (cancer patients [6]; [11]): 80 (33.4) Number of patients (%) | Hemoglobin, NCI-CTC Grade 3 (cancer patients [6]; [11]): 23 (9.6) Number of patients (%) | Hemoglobin, NCI-CTC Grade 4 (cancer patients [6]; [11]): 4 (1.6) Number of patients (%) | Neutrophils, NCI-CTC Grade 0-1 (cancer patients [6]; [11]): 59 (24.5) Number of patients (%) | Neutrophils, NCI-CTC Grade 2 (cancer patients [6]; [11]): 42 (17.4) Number of patients (%) | Neutrophils, NCI-CTC Grade 3 (cancer patients [6]; [11]): 57 (23.6) Number of patients (%) | Neutrophils, NCI-CTC Grade 4 (cancer patients [6]; [11]): 85 (35.2) Number of patients (%) | Platelets, NCI-CTC Grade 0-1 (cancer patients [6]; [11]): 170 (69.1) Number of patients (%) | Platelets, NCI-CTC Grade 2 (cancer patients [6]; [11]): 26 (10.6) Number of patients (%) | Platelets, NCI-CTC Grade 3 (cancer patients [6]; [11]): 31 (12.6) Number of patients (%) | Platelets, NCI-CTC Grade 4 (cancer patients [6]; [11]): 14 (5.6) Number of patients (%) | SGOT/AST, NCI-CTC Grade 1 (cancer patients [6]; [11]): 17 (7.2) Number of patients (%) | SGOT/AST, NCI-CTC Grade 2 (cancer patients [6]; [11]): 29 (12.3) Number of patients (%) | SGOT/AST, NCI-CTC Grade 3 (cancer patients [6]; [11]): 117 (49.7) Number of patients (%) | SGOT/AST, NCI-CTC Grade 4 (cancer patients [6]; [11]): 58 (24.6) Number of patients (%) | SGPT/ALT, NCI-CTC Grade 1 (cancer patients [6]; [11]): 13 (5.5) Number of patients (%) | SGPT/ALT, NCI-CTC Grade 2 (cancer patients [6]; [11]): 19 (8.1) Number of patients (%) | SGPT/ALT, NCI-CTC Grade 3 (cancer patients [6]; [11]): 107 (45.7) Number of patients (%) | SGPT/ALT, NCI-CTC Grade 4 (cancer patients [6]; [11]): 87 (37.1) Number of patients (%) | Increased transaminases (grade 3-4), cycles (cancer patients [6]; 3 hour schedule, % of cycles): 58.3% | Grades 1-3 of bilirubin (cancer patients [6]; 3 hour schedule, % of patients): 45% | Increased transaminases (grade 3-4), patients (cancer patients [6]; 3 hour schedule, % of patients): 83.4% | alkaline phosphatase overall (cancer patients [6]; 3 hour schedule, % of patients): 58.6% | grade 1 alkaline phosphatase (cancer patients [6]; 3 hour schedule, % of patients): 50.4% | grade 2 alkaline phosphatase (cancer patients [6]; 3 hour schedule, % of patients): 6.5% | grade 3 alkaline phosphatase (cancer patients [6]; 3 hour schedule, % of patients): 1.7% | recommended dose (cancer patients [6]; 3 hour schedule, at present (reduced)): 1300 μg/m^2 | Grade 3-4 ALT (cancer patients [6]; 3 h schedule every three weeks): 82.8% | Grade 3-4 Bilirubin (cancer patients [6]; 3 h schedule every three weeks): 2.6% | Grade 3-4 Creatinine (cancer patients [6]; 3 h schedule every three weeks): 2.3% | Grade 3-4 Creatinine Kinase (cancer patients [6]; 3 h schedule every three weeks): 1.5% | Grade 3-4 Hemoglobin (cancer patients [6]; 3 h schedule every three weeks): 11.3% | Grade 3-4 Neutrophils (cancer patients [6]; 3 h schedule every three weeks): 58.3% | Grade 3-4 Platelets (cancer patients [6]; 3 h schedule every three weeks): 18.7% | Creatinine abnormalities, NCI-CTC Grade 1 (cancer patients [6]; [12]): 44 (20.1) | Creatinine abnormalities, NCI-CTC Grade 2 (cancer patients [6]; [12]): 10 (4.6) | Creatinine abnormalities, NCI-CTC Grade 3 (cancer patients [6]; [12]): 5 (2.3) | Creatinine abnormalities, NCI-CTC Grade 4 (cancer patients [6]; [12]): 0 ^ | grade 3 ALT (cancer patients [6]; [13]): 38% | grade 4 ALT (cancer patients [6]; [13]): 8.5%
